Assay results as given in PubChem BioAssay AID248 (DTP/NCI, 2004).
Inconclusive results and toxic doses are left out. Cut-off read from the data, not from the text of the source: active = T/C of 150% or more; inactive = T/C below 125%.

Test system: L1210 leukemia ip in BDF1 mice, survival T/C
Experiment: NCI In Vivo Anticancer Drug Screen. Data for tumor model L1210 Leukemia (intraperitoneal) in B6D2F1 (BDF1) mice
Conditions: endpoint: mean survival time, higher = longer survival
Summary of the method: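 Transplantable tumor model; survival measured in treated vs vehicle control mice. Value = treated/control.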

[1] = dose: 50.0 mg/kg/injection, schedule: Q01DX009 (ip), vehicle: saline sonified
[2] = dose: 100.0 mg/kg/injection, schedule: Q04DX003 (ip), vehicle: Klucel (hydroxypropylcellulose) (HPC)
[3] = dose: 200.0 mg/kg/injection, schedule: Q01DX009 (ip), vehicle: saline sonified
[4] = dose: 200.0 mg/kg/injection, schedule: Q04DX003 (ip), vehicle: Klucel (hydroxypropylcellulose) (HPC)
[5] = dose: 100.0 mg/kg/injection, schedule: Q01DX001 (ip), vehicle: saline
[6] = dose: 200.0 mg/kg/injection, schedule: Q01DX001 (ip), vehicle: saline
[7] = dose: 400.0 mg/kg/injection, schedule: Q01DX001 (ip), vehicle: saline
[8] = dose: 50.0 mg/kg/injection, schedule: Q01DX009 (ip), vehicle: Klucel (hydroxypropylcellulose) (HPC)
[9] = dose: 100.0 mg/kg/injection, schedule: Q01DX009 (ip), vehicle: Klucel (hydroxypropylcellulose) (HPC)
[10] = dose: 200.0 mg/kg/injection, schedule: Q01DX009 (ip), vehicle: Klucel (hydroxypropylcellulose) (HPC)
[11] = dose: 400.0 mg/kg/injection, schedule: Q04DX003 (ip), vehicle: Klucel (hydroxypropylcellulose) (HPC)
[12] = dose: 100.0 mg/kg/injection, schedule: Q01DX009 (ip), vehicle: saline

Measured: T/C

CC1(C)CC(=O)C=C(NC2CCCCC2)C1
inactive: [1] 94 % of control | dose: 100.0 mg/kg/injection, schedule: Q01DX009 (ip), vehicle: saline sonified 103 % of control | [2] 96 % of control | [3] 92 % of control | [4] 98 % of control

CC(C)CCCCCCCCCCCCC(=O)NCC(=O)NC1C(O)C(O)C(Nc2ncnc3nc[nH]c23)OC1C(O)CO (stereo unspecified)
inactive: dose: 0.3 mg/kg/injection, schedule: Q## X000 (ip), vehicle: carboxymethylcellulose (CMC) 100 % of control | dose: 0.4 mg/kg/injection, schedule: Q01DX Z (ip), vehicle: carboxymethylcellulose (CMC) 107 % of control | dose: 0.44 mg/kg/injection, schedule: Q## X000 (ip), vehicle: carboxymethylcellulose (CMC) 107 % of control | dose: 0.6 mg/kg/injection, schedule: Q01DX Z (ip), vehicle: carboxymethylcellulose (CMC) 104 % of control | dose: 0.66 mg/kg/injection, schedule: Q## X000 (ip), vehicle: carboxymethylcellulose (CMC) 98 % of control | dose: 0.9 mg/kg/injection, schedule: Q01DX Z (ip), vehicle: carboxymethylcellulose (CMC) 103 % of control | dose: 1.0 mg/kg/injection, schedule: Q01DX001 (ip), vehicle: saline 101 % of control | dose: 1.0 mg/kg/injection, schedule: Q## X000 (ip), vehicle: carboxymethylcellulose (CMC) 110 % of control | dose: 1.35 mg/kg/injection, schedule: Q01DX Z (ip), vehicle: carboxymethylcellulose (CMC) 107 % of control | dose: 2.0 mg/kg/injection, schedule: Q01DX001 (ip), vehicle: saline 98 % of control | dose: 4.0 mg/kg/injection, schedule: Q01DX001 (ip), vehicle: saline 98 % of control | dose: 8.0 mg/kg/injection, schedule: Q01DX001 (ip), vehicle: saline 101 % of control | dose: 12.0 mg/kg/injection, schedule: Q01DX001 (ip), vehicle: saline 105 % of control | dose: 18.0 mg/kg/injection, schedule: Q01DX001 (ip), vehicle: saline 112 % of control | dose: 27.0 mg/kg/injection, schedule: Q01DX001 (ip), vehicle: saline 96 % of control

CCC(CC)c1cccc2ccccc12
inactive: [5] 98 % of control | [6] 96 % of control | [7] 108 % of control

Nc1nn(-c2ccccc2)c(N)c1N=Nc1ccccc1
inactive: [8] 98 % of control | [9] 98 % of control | [10] 98 % of control

Cc1cc(=O)oc2cc(OCc3ccccc3)cc(O)c12
inactive: dose: 75.0 mg/kg/injection, schedule: Q01DX001 (ip), vehicle: other 103 % of control | dose: 150.0 mg/kg/injection, schedule: Q01DX001 (ip), vehicle: other 108 % of control | dose: 300.0 mg/kg/injection, schedule: Q01DX001 (ip), vehicle: other 108 % of control

NC(C(=O)O)c1ccco1 (stereo unspecified)
inactive: [2] 103 % of control | [4] 105 % of control | [11] 101 % of control

Cc1cc(=O)n(-c2ccc(N)cc2)n1C
inactive: [2] 100 % of control | [4] 100 % of control | [11] 101 % of control

COC(=O)C(=O)c1c(O)n(-c2ccccc2)c2ccccc12
inactive: dose: 25.0 mg/kg/injection, schedule: Q04DX003 (ip), vehicle: Klucel (hydroxypropylcellulose) (HPC) 101 % of control | dose: 50.0 mg/kg/injection, schedule: Q04DX003 (ip), vehicle: Klucel (hydroxypropylcellulose) (HPC) 101 % of control | [2] 98 % of control

Oc1ccc(CCNCc2cc3c(cc2Br)OCO3)cc1
inactive: [8] 101 % of control | [9] 96 % of control | [10] 108 % of control

CC1(C)CCC(N)CC1
inactive: dose: 75.0 mg/kg/injection, schedule: Q01DX001 (ip), vehicle: saline 93 % of control | dose: 150.0 mg/kg/injection, schedule: Q01DX001 (ip), vehicle: saline 95 % of control

COC(=O)C1=C(C(=O)OC)C2C=CC1C2
inactive: [5] 102 % of control | [9] 111 % of control | [6] 94 % of control | [10] 91 % of control | [7] 91 % of control | dose: 400.0 mg/kg/injection, schedule: Q01DX009 (ip), vehicle: Klucel (hydroxypropylcellulose) (HPC) 97 % of control

CC1(C)N=C(N)N=C(N)N1c1ccc(CCNS(=O)(=O)c2ccc(S(=O)(=O)F)cc2)cc1
inactive: dose: 0.8 mg/kg/injection, schedule: Q01DX009 (ip), vehicle: saline 97 % of control | dose: 4.0 mg/kg/injection, schedule: Q01DX009 (ip), vehicle: saline 104 % of control | dose: 20.0 mg/kg/injection, schedule: Q01DX009 (ip), vehicle: saline 103 % of control | [12] 103 % of control | dose: 500.0 mg/kg/injection, schedule: Q01DX009 (ip), vehicle: saline 108 % of control

O=[N+]([O-])c1cccc(C=Nc2cccc(C(F)(F)F)c2)c1
inactive: [9] 109 % of control | [2] 110 % of control | [10] 98 % of control | [4] 110 % of control | [11] 101 % of control

CCC1([N+](=O)[O-])COP(=O)(NCc2cccnc2)OC1 (stereo unspecified)
inactive: dose: 100.0 mg/kg/injection, schedule: Q01DX001 (ip), vehicle: carboxymethylcellulose (CMC) 92 % of control | dose: 200.0 mg/kg/injection, schedule: Q01DX001 (ip), vehicle: carboxymethylcellulose (CMC) 101 % of control | dose: 400.0 mg/kg/injection, schedule: Q01DX001 (ip), vehicle: carboxymethylcellulose (CMC) 116 % of control

CCCCN(CCCC)C(=O)CC(C)(O)c1ccccc1 (stereo unspecified)
inactive: dose: 50.0 mg/kg/injection, schedule: Q01DX001 (ip), vehicle: saline 96 % of control | [5] 107 % of control | [6] 94 % of control | [7] 96 % of control

Nc1nc2nc3c(nc2c(=O)[nH]1)CN(C1CCCCC1)C3=O
inactive: dose: 75.0 mg/kg/injection, schedule: Q01DX001 (ip), vehicle: carboxymethylcellulose (CMC) 96 % of control | dose: 150.0 mg/kg/injection, schedule: Q01DX001 (ip), vehicle: carboxymethylcellulose (CMC) 94 % of control

CCC[CH2][Sn]([CH2]C)([CH2]CCC)[CH2]CCC
inactive: dose: 100.0 mg/kg/injection, schedule: Q04DX003 (ip), vehicle: saline 93 % of control | dose: 200.0 mg/kg/injection, schedule: Q04DX003 (ip), vehicle: saline 93 % of control | dose: 400.0 mg/kg/injection, schedule: Q04DX003 (ip), vehicle: saline 95 % of control

Nc1ncnc2c1c(-c1ncn[nH]1)cn2C1OC(CO)C(O)C1O (stereo unspecified)
inactive: dose: 0.09 mg/kg/injection, schedule: Q01DX009 (ip), vehicle: saline 119 % of control | dose: 0.19 mg/kg/injection, schedule: Q01DX009 (ip), vehicle: saline 119 % of control | dose: 0.39 mg/kg/injection, schedule: Q01DX005 (ip), vehicle: saline 119 % of control

CCCCCCCC[Si](c1ccc(C)cc1)(c1ccc(C)cc1)c1ccc(C)cc1
inactive: dose: 100.0 mg/kg/injection, schedule: Q01DX001 (ip), vehicle: other 97 % of control | dose: 200.0 mg/kg/injection, schedule: Q01DX001 (ip), vehicle: other 95 % of control | dose: 400.0 mg/kg/injection, schedule: Q01DX001 (ip), vehicle: other 97 % of control

O=C(O)C1C(C(=O)O)C2(Cl)C(Cl)=C(Cl)C1(Cl)C2(Cl)Cl.[Mn] (stereo unspecified)
inactive: dose: 44.0 mg/kg/injection, schedule: Q01DX009 (ip), vehicle: saline 107 % of control | [1] 114 % of control | dose: 66.0 mg/kg/injection, schedule: Q01DX009 (ip), vehicle: saline 105 % of control | [12] 105 % of control | [2] 97 % of control | dose: 150.0 mg/kg/injection, schedule: Q01DX009 (ip), vehicle: saline 112 % of control | [3] 104 % of control | [4] 95 % of control

COC(=O)c1ccc(Cl)cc1OCC(=O)Nc1ccccc1
inactive: dose: 100.0 mg/kg/injection, schedule: Q01DX001 (ip), vehicle: Klucel (hydroxypropylcellulose) (HPC) 97 % of control | dose: 200.0 mg/kg/injection, schedule: Q01DX001 (ip), vehicle: Klucel (hydroxypropylcellulose) (HPC) 103 % of control | dose: 400.0 mg/kg/injection, schedule: Q01DX001 (ip), vehicle: Klucel (hydroxypropylcellulose) (HPC) 93 % of control

NC(=O)NCN1C(=O)c2ccccc2C1=O
inactive: dose: 100.0 mg/kg/injection, schedule: Q04DX002 (ip), vehicle: Klucel (hydroxypropylcellulose) (HPC) 100 % of control | dose: 200.0 mg/kg/injection, schedule: Q04DX002 (ip), vehicle: Klucel (hydroxypropylcellulose) (HPC) 94 % of control | dose: 400.0 mg/kg/injection, schedule: Q04DX002 (ip), vehicle: Klucel (hydroxypropylcellulose) (HPC) 90 % of control
